Test results: patent publication US20250264459A1, “IN VITRO ASSAY TO PREDICT CARDIOTOXICITY” (Stemina Biomarker Discovery, Inc., priority 2018, published 2025)
Read-outs that look alike come from different tables or passages of the source.

Columns and labels:
[1] = cited from earlier work
[2] = tested on: human iPSC-CM (iCell Cardiomyocytes2); assay: Spent-media metabolomics (LC-MS) cardiotoxicity prediction models, blinded test set; details: for Global Tox Model Prediction: cardiotoxic vs non-cardiotoxic, at the Exposure (μM) listed per compound in Table 3, model from confirmed metabolites and viability; for Functional Model Prediction: functional vs general/structural cardiotoxicants, at the Exposure (μM) listed per compound in Table 3
[3] = tested on: human iPSC-CM (iCell Cardiomyocytes); assay: Dose-response cell viability (CellTiter-Fluor) in iPSC-derived cardiomyocytes, maximum acceptable viability exposure; format: cell-based; details: human
Procedure: Metabolomic data was acquired to identify non-cytotoxic exposure levels and identify biomarkers of cardiotoxicity from a dose-response experiment using spent medium of iPSC-CM treated with 53 of the compounds in the training set. Briefly, human iPSC-CM (iCell® Cardiomyocytes, cat #R1007, Cellular Dynamics International) were exposed to eight concentrations of each training set compound. Spent media was collected for LC-MS analysis and cell viability was assessed with the CellTiter-Fluor Cell Viability Assay (Promega). Spent media samples were prepared and analyzed using the methods developed in Specific Aim 1. The spent media samples from iPSC-CM treated with 10 representative cardiotoxic and non-cardiotoxic compounds were analyzed with all four LC-MS methods to rank biological significant secretome features by predictive capacity. […]
The goal of the concentration-response phase of biomarker identification was to identify non-cytotoxic exposure levels that change iPSC-CM metabolism. The method included modeling feature response, calculating maximum acceptable viability (MAVE), determining response at Cmax, and MAVE, reviewing the top 4 responding features, and selecting the highest tested exposure with 90% viability.

SMILES | Cmax Total ([1]; therapeutic total Cmax) | Global Tox Model Prediction [2] | Functional Model Prediction [2] | Cmax Total ([1]; in vivo) | MAVE (Maximum Acceptable Viability Exposure) [3]
CS(=O)(=O)OCCCCOS(C)(=O)=O [Busulfan] | 50000 nM | + | − |  | 
CN(CCOc1ccc(CC2SC(=O)NC2=O)cc1)c1ccccn1 (stereo not drawn) [Rosiglitazone] |  |  | − |  | 
CC[C@H](OC(C)=O)C(C[C@H](C)N(C)C)(c1ccccc1)c1ccccc1 [Levomethadyl Acetate] |  | + | + | 600 nM | 
OC[C@@H](O)[C@H](O)[C@@H](O)CO [Xylitol] | 500 nM | − | − |  | 
OC[C@H]1O[C@@](CO)(O[C@H]2O[C@H](CO)[C@@H](O)[C@H](O)[C@H]2O)[C@@H](O)[C@@H]1O [Sucrose] | 1800 nM | − | − |  | 
CC(=O)Oc1ccccc1C(=O)O [Acetylsalicylic Acid] | 10000 nM | − | − |  | 
CC(C)COCC(CN(Cc1ccccc1)c1ccccc1)N1CCCC1 (stereo not drawn) [Bepridil] | 3300 nM | + | + |  | 
CCOC(=O)N1CCC(=C2c3ccc(Cl)cc3CCc3cccnc32)CC1 [Loratadine] |  |  | − |  | 
CC(C)NCC(O)c1ccc(NS(C)(=O)=O)cc1 (stereo not drawn) [Sotalol] | 15000 nM | + | + |  | 
Cc1cn(-c2cc(NC(=O)c3ccc(C)c(Nc4nccc(-c5cccnc5)n4)c3)cc(C(F)(F)F)c2)cn1 [Nilotinib] | 3000 nM | + | − |  | 
CCCc1nn(C)c2c(=O)[nH]c(-c3cc(S(=O)(=O)N4CCN(C)CC4)ccc3OCC)nc12 [Sildenafil] |  | − | − |  | 
O=C(O)COCCN1CCN(C(c2ccccc2)c2ccc(Cl)cc2)CC1 (stereo not drawn) [Cetirizine] |  |  | − |  | 
COc1ccc(CCN2CCC(Nc3nc4ccccc4n3Cc3ccc(F)cc3)CC2)cc1 [Astemizole] | 8 nM |  |  |  | 3 µM
Nc1nc2c(ncn2COCCO)c(=O)[nH]1 [Acyclovir] | 6700 nM |  |  |  | 100 µM
Cc1nc(Nc2ncc(C(=O)Nc3c(C)cccc3Cl)s2)cc(N2CCN(CCO)CC2)n1 [Dasatinib] | 720 nM |  |  |  | 10 µM
CS(=O)(=O)CCNCc1ccc(-c2ccc3ncnc(Nc4ccc(OCc5cccc(F)c5)c(Cl)c4)c3c2)o1 [Lapatinib] | 4180 nM |  |  |  | 10 µM
CNCCC=C1c2ccccc2CCc2ccccc21 [Nortriptyline] | 570 nM |  |  |  | 1 µM
